“And” between values parts separate entries of the source, which are not always exact repeats. Equal entries are not always repeated. Where two headings read alike, the source gives them in different places.
Assays:
Southern armyworm [1] = experiment: Residual (7-day) contact activity, southern armyworm; type: in vivo, Spodoptera eridania [Cram.]; conditions: Spodoptera eridania, 168 h; for mortality at 625 ppm: read-out: Percent Kill, residual 7-day, AW, 625 PPM
Procedure: (§1) Initial Contact Activity: One half gram of test compound was dissolved in 40 ml of acetone and this solution was dispersed in 360 ml of water containing one drop of isooctylphenyl polyethoxyethanol. Aliquots of this solution, which corresponds to 1250 ppm of active ingredient, were diluted with an appropriate amount of water to provide solutions containing various concentrations of active ingredient. Test organisms and techniques were as follows: The activity against the Mexican bean beetle (Epilachna varivestis Muls.) and the southern armyworm (Spodoptera eridania [Cram.]) was evaluated by dipping the leaves of pinto bean plants into the test solution and infesting the leaves with the appropriate immature-form insects when the foiliage had dried; the activity against the pea aphid (Acyrthosiphon pisum [Harris]) was evaluated on broad bean plants whose leaves were dipped before infestation with adult aphids; the activity against two-sotted spider mites (Tetranychus urticae Koch) was evaluated on pinto bean plants whose leaves were dipped after infestation with adult mites; the activity against the milkweed bug (Oncopeltus fasciatus [Dallas]), and the plum curculio (Conotrachelus nenuphar [Herbst]) was evaluated by spraying the test solutions into glass dishes or jars containing the adult insects; the activity against the confused flour beetle (Tribolium confusum duVal) was evaluated by introducing the insects into glass dishes which had been previously sprayed with test solution and allowed to dry. All organisms in the test were maintained in a holding room at 80° F and 50% relative humidity for an exposure period of 48 hours. At the end of this time, the dead and living insects or mites were counted, and the percent kill was calculated.
(§2) Residual Contact Activity: The residual contact activity of the compounds was determined on the same organisms using the techniques described above, except that in each case the treated surface was allowed to dry and was exposed to normal light and air for seven days before introduction of the mites or insects.

Pea aphid = experiment: Initial contact activity, leaf dip, pea aphid; type: in vivo, Acyrthosiphon pisum [Harris]; conditions: for mortality at 10 ppm / mortality at 39 ppm / mortality at 156 ppm / mortality at 1250 ppm / mortality at 20 ppm: Acyrthosiphon pisum, foliar, 48 h
Procedure: as §1

Granary Weevil = experiment: Residual (7-day) contact activity, granary weevil; type: in vivo; conditions: Sitophilus granarius, 168 h, read-out: Percent Kill
Confused flour beetle [2] = experiment: Initial contact activity, sprayed dishes, confused flour beetle; type: in vivo, Tribolium confusum duVal; conditions: Tribolium confusum, read-out: Percent Kill
Procedure: as §1

Mexican bean beetle = experiment: Residual (7-day) contact activity, Mexican bean beetle; type: in vivo, Epilachna varivestis Muls.; conditions: Epilachna varivestis, 168 h; for mortality at 625 ppm: read-out: Percent Kill, residual 7-day, BB, 625 PPM
Procedure: as §1, §2

Two-spotted spider mite = experiment: Systemic activity, soil-watering, two-spotted spider mite; type: in vivo, Tetranychus urticae Koch; conditions: Tetranychus urticae, 48 h
Procedure: as §1
(§3) Systemic Activity: Systemic activity was measured using a soil-watering technique. Test organisms were Mexican bean beetle, southern armyworm, pea aphid, and mites on plants as described above in this Example. With appropriate precautions to avoid contact of the solution with the test plant surfaces, 25 ml of a test solution, prepared as above to contain the desired amount of active ingredient, were poured evenly over the surface of the soil in which the plant was growing. The treated plants were maintained under normal growing conditions for three days to permit translocation of the toxicant, after which the leaves were infested. Two days after infestation, counts of living and dead insects were made.

Southern armyworm [3] = experiment: Systemic activity, soil-watering, southern armyworm; type: in vivo, Spodoptera eridania [Cram.]; conditions: Spodoptera eridania, 48 h, read-out: Percent Kill
Procedure: as §1, §3

Confused flour beetle [4] = experiment: Residual (7-day) contact activity, confused flour beetle; type: in vivo, Tribolium confusum duVal; conditions: Tribolium confusum, 168 h, read-out: Percent Kill
Procedure: as §1, §2

insects and mites = experiment: Systemic activity (soil-watering), insects and mites in general; type: in vivo; conditions: in words
Procedure: as §3

[5] = residual 7-day, AW, 312 PPM, read-out: Percent Kill
[6] = residual 7-day, AW, read-out: Percent Kill
[7] = initial, PA, 10 PPM, 48 hours, read-out: Percent Kill
[8] = initial, PA, 39 PPM, 48 hours, read-out: Percent Kill
[9] = initial, PA, 156 PPM, 48 hours, read-out: Percent Kill
[10] = initial, PA, 1250 PPM, 48 hours, read-out: Percent Kill
[11] = initial, FB, 1250 PPM, 48 hours
[12] = residual 7-day, BB, read-out: Percent Kill
[13] = residual 7-day, BB, 1250 PPM, read-out: Percent Kill
[14] = systemic, SM, 2.5 PPM, read-out: Percent Kill
[15] = systemic, SM, read-out: Percent Kill
[16] = systemic, SM, 10 PPM, read-out: Percent Kill
[17] = systemic, SM, 39 PPM, read-out: Percent Kill

## CCCCN(CCCC)SN(C)C(=O)ON=CC(C)(C)SC [Example III, 2-methyl-2-(methylthio)propanal O-[(dibutylaminosulfenyl)(methyl)carbamoyl]oxime]
Southern armyworm [1]; [5]
  mortality at 312 ppm: 0%
Southern armyworm [1]; [6]
  mortality at 1250 ppm: 0%
Pea aphid; [7]
  mortality at 10 ppm: 53%
Pea aphid; [8]
  mortality at 39 ppm: 19%
Pea aphid; [9]
  mortality at 156 ppm: 100%
Pea aphid; [10]
  mortality at 1250 ppm: 100%
Granary Weevil; residual 7-day, GW, 312 PPM
  mortality at 312 ppm: 0%
Granary Weevil; residual 7-day, GW, 1250 PPM
  mortality at 1250 ppm: 17%
Confused flour beetle [2]; initial, FB, 156 PPM, 48 hours
  mortality at 156 ppm: 0%
Confused flour beetle [2]; initial, FB, 312 PPM, 48 hours
  mortality at 312 ppm: 7.5%
Confused flour beetle [2]; [11]
  mortality at 1250 ppm: 70%
Mexican bean beetle; [12]
  mortality at 312 ppm: 0%
Mexican bean beetle; [13]
  mortality at 1250 ppm: 92%
Two-spotted spider mite; [14]
  mortality at 2.5 ppm: 0.9%
Two-spotted spider mite; [15]
  mortality at 5 ppm: 0%
Two-spotted spider mite; [16]
  mortality at 10 ppm: 0.7%
Southern armyworm [3]; systemic, AW, 312 PPM
  mortality at 312 ppm: 0%
Southern armyworm [3]; systemic, AW, 625 PPM
  mortality at 625 ppm: 68%
Confused flour beetle [4]; residual 7-day, FB, 312 PPM
  mortality at 312 ppm: 0%
Confused flour beetle [4]; residual 7-day, FB, 1250 PPM
  mortality at 1250 ppm: 0%

## CSC(C)(C)C=NOC(=O)N(C)SN1CCOCC1 [Example II, 2-methyl-2-(methylthio)propanol O-[(N-methyl-N-morpholinosulfenyl)carbamoyl]oxime]
Southern armyworm [1]; [5]
  mortality at 312 ppm: 64%
Southern armyworm [1]; [6]
  mortality at 1250 ppm: 55%
Pea aphid; [7]
  mortality at 10 ppm: 78%
Pea aphid; [8]
  mortality at 39 ppm: 100%
Pea aphid; [9]
  mortality at 156 ppm: 100%
Pea aphid; [10]
  mortality at 1250 ppm: 100%
Granary Weevil; residual 7-day, GW, 312 PPM
  mortality at 312 ppm: 20%
Granary Weevil; residual 7-day, GW, 1250 PPM
  mortality at 1250 ppm: 100%
Confused flour beetle [2]; initial, FB, 156 PPM, 48 hours
  mortality at 156 ppm: 5%
Confused flour beetle [2]; initial, FB, 312 PPM, 48 hours
  mortality at 312 ppm: 51%
Confused flour beetle [2]; [11]
  mortality at 1250 ppm: 80%
Mexican bean beetle; [12]
  mortality at 312 ppm: 88%
Mexican bean beetle; [13]
  mortality at 1250 ppm: 100%
Two-spotted spider mite; [15]
  mortality at 5 ppm: 1.4%
Two-spotted spider mite; [16]
  mortality at 10 ppm: 38%
Two-spotted spider mite; [17]
  mortality at 39 ppm: 69%
Southern armyworm [3]; systemic, AW, 312 PPM
  mortality at 312 ppm: 100%
Southern armyworm [3]; systemic, AW, 625 PPM
  mortality at 625 ppm: 100%
Confused flour beetle [4]; residual 7-day, FB, 312 PPM
  mortality at 312 ppm: 0%
Confused flour beetle [4]; residual 7-day, FB, 1250 PPM
  mortality at 1250 ppm: 2.5%

## CNC(=O)ON=CC(C)(C)SC [Aldicarb, 2-methyl-2-(methylthio)propanal O-(methylcarbamoyl)oxime]
Southern armyworm [1]; read-out: Percent Kill, residual 7-day, AW, 312 PPM
  mortality at 312 ppm: 0%
Southern armyworm [1]
  mortality at 625 ppm: 0%
Pea aphid; read-out: Percent Kill, initial, PA, 10 PPM, 48 hours
  mortality at 10 ppm: 33%
Pea aphid; read-out: Percent Kill, initial, PA, 20 PPM, 48 hours
  mortality at 20 ppm: 35%
Pea aphid; read-out: Percent Kill, initial, PA, 156 PPM, 48 hours
  mortality at 156 ppm: 100%
Pea aphid; read-out: Percent Kill, initial, PA, 1250 PPM, 48 hours
  mortality at 1250 ppm: 100%
Pea aphid; initial, PA, 39 PPM, 48 hours, 2880 min
  Percent Kill: 60% and 85%
Pea aphid; initial, PA, 156 PPM, 48 hours
  Percent Kill: 100%
Granary Weevil
  mortality at 312 ppm: 3.3%
  mortality at 1250 ppm: 0%
Confused flour beetle [2]; 48 h
  mortality at 156 ppm: 5%
  mortality at 312 ppm: 10%
  mortality at 1250 ppm: 90%
Mexican bean beetle
  mortality at 625 ppm: 47%
Mexican bean beetle; read-out: Percent Kill, residual 7-day, BB, 1250 PPM
  mortality at 1250 ppm: 100%
Two-spotted spider mite; read-out: Percent Kill, systemic, SM, 2.5 PPM
  mortality at 2.5 ppm: 4.6%
Two-spotted spider mite; read-out: Percent Kill, systemic, SM, 10 PPM
  mortality at 10 ppm: 100%
Two-spotted spider mite; read-out: Percent Kill, systemic, SM, 39 PPM
  mortality at 39 ppm: 100%
Southern armyworm [3]
  mortality at 39 ppm: 50%
  mortality at 312 ppm: 100%
  mortality at 625 ppm: 100%
Confused flour beetle [4]
  mortality at 312 ppm: 0%
  mortality at 1250 ppm: 0%

## CSC(C)(C)C=NOC(=O)N(C)SN(C)C [Example IV, 2-Methyl-2-(methylthio)propanal O-[(dimethylaminosulfenyl)-(methyl)carbamoyl]oxime]
Southern armyworm [1]
  mortality at 625 ppm: 0%
Southern armyworm [1]; [6]
  mortality at 1250 ppm: 20%
Pea aphid; initial, PA, 20 PPM, 48 hours, read-out: Percent Kill
  mortality at 20 ppm: 0%
Pea aphid; [8]
  mortality at 39 ppm: 5%
Pea aphid; [9]
  mortality at 156 ppm: 95%
Pea aphid; [10]
  mortality at 1250 ppm: 100%
Mexican bean beetle
  mortality at 625 ppm: 40%
Mexican bean beetle; [12]
  mortality at 312 ppm: 17%
Mexican bean beetle; [13]
  mortality at 1250 ppm: 50%
Two-spotted spider mite; [15]
  mortality at 5 ppm: 100%
Two-spotted spider mite; [17]
  mortality at 39 ppm: 100%
Two-spotted spider mite; systemic, SM, 312 PPM, read-out: Percent Kill
  mortality at 312 ppm: 100%
Southern armyworm [3]; systemic, AW, 39 PPM
  mortality at 39 ppm: 0%
Southern armyworm [3]; systemic, AW, 312 PPM
  mortality at 312 ppm: 100%
Insects and mites
  systemic activity compared with aldicarb: substantially the same as aldicarb

## CSC(C)(C)C=NOC(=O)N(C)SN(C)Cc1ccccc1 [Example I, 2-methyl-2-(methylthio)propanol O-[(N-benzyl-N-methylaminosulfenyl)(methyl)carbamoyl]oxime]
Southern armyworm [1]; [5]
  mortality at 312 ppm: 0%
Southern armyworm [1]; [6]
  mortality at 1250 ppm: 91%
Pea aphid; [7]
  mortality at 10 ppm: 20%
Pea aphid; [8]
  mortality at 39 ppm: 62%
Pea aphid; [9]
  mortality at 156 ppm: 100%
Pea aphid; [10]
  mortality at 1250 ppm: 100%
Granary Weevil; residual 7-day, GW, 312 PPM
  mortality at 312 ppm: 41%
Granary Weevil; residual 7-day, GW, 1250 PPM
  mortality at 1250 ppm: 100%
Confused flour beetle [2]; initial, FB, 156 PPM, 48 hours
  mortality at 156 ppm: 5%
Confused flour beetle [2]; initial, FB, 312 PPM, 48 hours
  mortality at 312 ppm: 5%
Confused flour beetle [2]; [11]
  mortality at 1250 ppm: 2.5%
Mexican bean beetle; [12]
  mortality at 312 ppm: 0%
Mexican bean beetle; [13]
  mortality at 1250 ppm: 89%
Two-spotted spider mite; [14]
  mortality at 2.5 ppm: 0.9%
Two-spotted spider mite; [15]
  mortality at 5 ppm: 2.3%
Two-spotted spider mite; [16]
  mortality at 10 ppm: 4.3%
Southern armyworm [3]; systemic, AW, 312 PPM
  mortality at 312 ppm: 50%
Southern armyworm [3]; systemic, AW, 625 PPM
  mortality at 625 ppm: 84%
Confused flour beetle [4]; residual 7-day, FB, 312 PPM
  mortality at 312 ppm: 0%
Confused flour beetle [4]; residual 7-day, FB, 1250 PPM
  mortality at 1250 ppm: 2.6%
